Our source for the Activity and inhibition values is ChEMBL document CHEMBL5143573, “Cyclohumulanoid Sesquiterpenes Induced by the Noncompetitive Coculture of Phellinus orientoasiaticus and Xylodon flaviporus” (J Nat Prod, 2022).

Data set [1] concerns RAW264.7. In words: Cytotoxicity against LPS-stimulated mouse RAW264.7 cells assessed as reduction in cell viability at 10 to 100 uM incubated for 20 hrs by MTT assay. It is filed as toxicity, cell-based. Conditions: raw264.7, 20 h, dose 10-100 µM.
The test system of data set [2] is RAW264.7. In words: Antiinflammatory activity in mouse RAW264.7 cells assessed as inhibition of LPS-induced NO production at 100 uM incubated for 20 hrs by Griess reagent based assay relative to control. Format: functional. (The Griess reaction detects nitrite, a stable product of nitric oxide.)
Data set [3] relates to RAW264.7. In words: Antiinflammatory activity in mouse RAW264.7 cells assessed as inhibition of LPS-induced NO production incubated for 20 hrs by Griess reagent based assay. Format: functional, cell-based. Conditions: dose 10-100 µM, DDE = dose-dependent effect.
In data set [4] the test system is Caco-2. Kind of data set: Cytotoxicity against human Caco-2 cells assessed as reduction in cell viability at 10 to 100 uM incubated for 48 hrs by MTT assay. Format: toxicity, cell-based. Conditions: caco-2, 48 h, dose 10-100 µM.

The term inhibition denotes the share of the control response that was lost under treatment.

As for `CC1=C2C[C@@](C)(C(=O)O)C[C@H]2C[C@]2(C)C[C@H](O)[C@]12O`, the Activity result in data set [1] was “Non-Toxic”; in data set [3], “Dde”; in data set [4] it was “Non-Toxic”. The inhibition at 100 µM in data set [2] was found to be 36.4%.

Regarding `CC1=C2C[C@@](C)(C(=O)O)C[C@H]2C[C@@H](CO)C12CC2`, the Activity result is “Non-Toxic” in data set [1], “Dde” in data set [3] and “Non-Toxic” in data set [4].

For the compound `CC1=C2C[C@@](C)(C(=O)O)C[C@H]2C[C@]2(CO)CC[C@]12O`, the Activity entry is “Non-Toxic” in data set [1], “Dde” in data set [3] and “Non-Toxic” in data set [4].

As for `C[C@H]1CC[C@H](CO)C(CO)=C2[C@H]1CC(C)(C)[C@@H]2O`, the Activity result is “Non-Toxic” in data set [1], “Dde” in data set [3] and “Non-Toxic” in data set [4].

Turning to `CC1=C2C[C@@](C)(C(=O)O)C[C@H]2C[C@]2(C)CC[C@]12O`, the values for the Activity result in data set [1], in data set [3] and in data set [4] were “Non-Toxic”, “Dde” and “Non-Toxic”, respectively.

Take `CC1=C(CO)[C@H](C)C[C@@H]2C[C@](C)(C(=O)O)C=C12`: the Activity entry is “Non-Toxic” in data set [1], “Dde” in data set [3] and “Non-Toxic” in data set [4]. Besides, the inhibition at 100 µM in data set [2] stood at 34.8%.

With `C[C@H]1CC[C@H](CO)[C@H](CO)C2=C[C@](C)(CO)C[C@H]21`, the Activity result in data set [1] is “Non-Toxic”; in data set [3], “Dde”; in data set [4] it was “Non-Toxic”. Also, the inhibition at 100 µM in data set [2] came to 38%.
